Results: paper PMC6265983, “Identification and Molecular Docking Study of a Novel Angiotensin-I Converting Enzyme Inhibitory Peptide Derived from Enzymatic Hydrolysates of Cyclina sinensis” (Marine Drugs, 2018)
Where two headings read alike, the source gives them in different places. Ends that are not written are not given here.

Key:
[1] = tested on: ACE; settings: cited from earlier work; for IC50: read-out: IC50, ACE inhibition
From the text: Marine species account for about half of the world’s total biodiversity. This diversity, together with the availability of marine resources, have driven the search for new antihypertensive agents, which could be administered as functional foods or dietary supplements. Since the first discovery of a marine-derived peptide with ACE-inhibitory activity, researchers have identified a variety of antihypertensive peptides in hydrolysates from marine species, such as Synodus macrops

[2] = target: T1, ACE (from rabbit lung) (Oryctolagus cuniculus, UniProt P12822); assay: ACE inhibitory activity (HHL substrate, HPLC of hippuric acid); type: biochemical; settings: synthetic peptide, 37.5 °C 1 h, HPLC 228 nm, read-out: IC50 value, ACE inhibition
T1 construct: ACE (from rabbit lung); purchased Sigma Chemicals Co. (St. Louis, MO, USA); host or cells: rabbit lung tissue
T1 sequence (P12822 34-1310): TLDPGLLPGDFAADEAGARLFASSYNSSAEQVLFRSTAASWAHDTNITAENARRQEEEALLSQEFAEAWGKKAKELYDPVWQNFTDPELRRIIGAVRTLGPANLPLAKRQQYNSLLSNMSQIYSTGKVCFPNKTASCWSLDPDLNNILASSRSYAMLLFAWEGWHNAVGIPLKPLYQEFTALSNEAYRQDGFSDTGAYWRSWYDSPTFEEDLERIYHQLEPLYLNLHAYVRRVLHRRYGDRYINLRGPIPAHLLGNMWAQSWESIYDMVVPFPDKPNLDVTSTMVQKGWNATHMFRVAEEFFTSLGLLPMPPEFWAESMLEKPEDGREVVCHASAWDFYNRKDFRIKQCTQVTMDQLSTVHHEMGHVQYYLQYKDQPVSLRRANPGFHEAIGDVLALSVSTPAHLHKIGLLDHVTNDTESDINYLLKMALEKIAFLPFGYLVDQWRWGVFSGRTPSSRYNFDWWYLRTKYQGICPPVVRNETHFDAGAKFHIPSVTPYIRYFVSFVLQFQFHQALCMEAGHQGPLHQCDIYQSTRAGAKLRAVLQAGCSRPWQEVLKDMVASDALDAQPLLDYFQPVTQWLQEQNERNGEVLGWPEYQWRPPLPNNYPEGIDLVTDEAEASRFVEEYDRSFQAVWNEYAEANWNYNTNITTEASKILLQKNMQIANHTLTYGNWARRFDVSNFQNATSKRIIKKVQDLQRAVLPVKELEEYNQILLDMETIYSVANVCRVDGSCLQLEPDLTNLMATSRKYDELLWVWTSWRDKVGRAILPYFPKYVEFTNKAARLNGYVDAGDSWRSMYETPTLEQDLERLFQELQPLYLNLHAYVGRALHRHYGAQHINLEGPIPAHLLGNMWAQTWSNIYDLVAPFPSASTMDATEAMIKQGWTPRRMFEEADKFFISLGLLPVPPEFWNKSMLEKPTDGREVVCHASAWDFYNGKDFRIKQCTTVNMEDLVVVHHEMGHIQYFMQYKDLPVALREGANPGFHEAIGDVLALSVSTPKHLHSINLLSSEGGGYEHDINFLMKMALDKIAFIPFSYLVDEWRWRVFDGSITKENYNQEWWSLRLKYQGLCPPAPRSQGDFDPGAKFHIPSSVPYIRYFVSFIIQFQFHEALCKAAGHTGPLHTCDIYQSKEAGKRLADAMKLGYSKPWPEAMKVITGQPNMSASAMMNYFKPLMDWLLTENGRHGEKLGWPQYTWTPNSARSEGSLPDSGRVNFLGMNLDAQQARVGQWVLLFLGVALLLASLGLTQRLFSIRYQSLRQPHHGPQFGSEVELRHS
From the text: Trypsin (from bovine pancreas, 200 U/mg) and pepsin (from porcine gastric mucosa, 300 U/mg) were purchased from YTHX Biotechnology Co., Ltd. (Beijing, China). ACE (from rabbit lung), and the ACE synthetic substrate hippuryl-L-histidyl-L-leucine (HHL) were purchased from Sigma Chemicals Co. (St. Louis, MO, USA). Other chemicals and reagents used were of analytical grade, except acetonitrile and trifluoroacetic acid (TFA), which were HPLC grade (Sinopharm Chemical Reagent Co., Ltd, Shanghai, China).
To determine the ACE inhibitory activity, we used the method described by D.W.Cushman and Lisete Paiva, with slight modifications. Briefly, 120 μL of 5 mM HHL solution and 20 μL of 1 mg/mL sample solution were mixed thoroughly and pre-incubated for 5 min at 37.5 °C. The control was prepared by replacing the sample solution with 20 μL of 300 mM NaCl in 100 mM borate buffer (pH 8.3). Then, 10 μL of ACE (0.1 U/mL) solution was added, tubes were mixed well, and incubated at 37.5 °C for 1 h in a water bath. […] The reaction solutions were then filtered through a 0.45 μm microporous membrane and quantified by using a ZORBAX SB-C18 analytical column (4.6 mm × 250 mm, 5 μm, 25 °C) and an Agilent HPLC ChemStation, consisting of a G1311C quaternary pump VL, a G1329B standard autosampler, a G1316A column oven, and a G1314F variable wavelength detector. […] Hippuric acid (HA) was detected at 228 nm. […]

[3] = target: T1, ACE (from rabbit lung); assay: Stability of ACE inhibitory activity in simulated gastric and intestinal fluid; type: in vitro ADME; settings: read-out: ACE inhibitory activity of the control (undigested peptide)
Experimental: Simulated gastric fluid (SGF[sp]): Concentrated hydrochloric acid (37%) was diluted to a 9.5% to 10.5% solution. Then, 800 mL of water and 10 g of pepsin were added to 16.4 mL of this diluted hydrochloric acid solution, mixed well, and the volume completed to 1000 mL with water.
Simulated intestinal fluid (SIF[sp]): 6.8 g of KH2PO4 was dissolved in 500 mL of water, and the pH was adjusted to 6.8 with 0.1 M NaOH. Then ten grams of trypsin were dissolved in an appropriate amount of water, added to the solution described above, and diluted to 1000 mL with water.
The in vitro stability of the ACE inhibitory peptide in the simulated gastrointestinal environments was determined according to the method described by Yu et al [68]. […] (0.5 mg/mL) and incubated for 2 h at 37.5 °C. In addition, the peptide solution was first incubated with SGF[sp] at 37.5 °C for 2 h, the solvent was removed by means of a centrifugal filter concentrator, and was then incubated with SIF[sp] for 2 h. The reaction mixtures were then boiled to inactivate the enzyme. After cooling to room temperature, samples were centrifuged at −4 °C (10000 rpm, 15 min) and the supernatant was adjusted to pH = 7 for the determination of the ACE inhibitory activity.

[4] = from scorpion (Hemiscorpius lepturus) venom

For AFPYYGHHLG, the ACE inhibition mode [1, 4] is given as “competitive”.

In the case of “AGPPGSDGQPGAK [antihypertensive peptide from Synodus macrops hydrolysate]”, the IC50 ([1]; peptide from Synodus macrops) is given as 420 µM.

For Arg-Tyr-Leu [RYL], the ACE inhibition mode ([1]; from Silkworm Pupa) is listed as “competitive”.

In the case of “IGPR [antihypertensive peptide from Salmo salar]”, the IC50 ([1]; peptides from Salmo salar) is given as 430 µM.

For “SSSKAKKMP [antihypertensive peptide from shrimps]”, the IC50 ([1]; peptide from shrimps) is listed as 880 µM.

For Tyr-Gln-Lys [YQK], the ACE inhibition mode ([1]; from bovine casein) is listed as “competitive”.

In the case of VVSLSIPR, the ACE inhibition mode ([1]; from pigeon pea (Cajanus cajan)) is listed as “competitive”.

In the case of WPMGF [WPMGF, Trp-Pro-Met-Gly-Phe], the IC50 [2] is reported as 789 µM and the inhibition at 500 µg/mL [3] is reported as 51.5 ± 0.72%.

In the case of YLYELAR [YLYELAR], the ACE inhibition mode [1, 4] is given as “competitive”.
